Square brackets hold non-standard residues; d marks the D form. Ends that are not written are not given here. Peptide text beside a SMILES is read from it.

The target in data set [1] is T1, myotoxin II (Bothrops asper, UniProt P24605). It is filed as binding.
A short description of data set [2]: Fluorescence polarization test for self-assembly or aggregation. It is filed as physicochemical. To be noted: absence of Myotoxin-II. On the technique in general: Polarisation of emitted light reports the rotation of a fluorescent probe.
Data set [3] deals with T1, myotoxin II.

T1 sequence (P24605 17-137 limits assumed): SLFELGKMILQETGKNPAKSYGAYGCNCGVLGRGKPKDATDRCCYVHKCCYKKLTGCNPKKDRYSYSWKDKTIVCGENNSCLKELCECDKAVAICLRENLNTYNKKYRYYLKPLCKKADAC

Turning to VNRMLELKIMDYGGG [Clone 1.1], in data set [1], the “ELISA signal at different dilutions, myotoxin II coated versus uncoated wells” value (“ELISA signal at different dilutions” for short) was “low difference for the dilutions of 1/100 and 1/1000”; the “ELISA signal, myotoxin II coated wells versus uncoated control” value was “greatest difference between toxin coated wells and control”.
On to “Y11D-Y (DHWVWGWNYQ[dY]QPQEWHTES) [Clone Y11D-Y]”, for which, in data set [2], the “Self-assembling or aggregating ability (artificial increase of FP signal of TAMRA-probe)” value is given as “did not artificially increase the FP signal”.
In the case of NGYWSSQQYMQQAPMPWRIP [Clone 4.10], in data set [1], the “ELISA signal at different dilutions” value is “highest signals and also the highest signal to noise ratio in all of the dilutions”; the “ELISA signal, myotoxin II coated wells versus uncoated control” value is “greatest difference between toxin coated wells and control”; the “Signal intensity and signal to noise ratio in cross reactivity ELISA” value is “highest signal intensity and the best signal to noise ratio”.
Take DYDRIPDIPMLGGGG [Clone 1.4]: in data set [1], the “ELISA signal at different dilutions” value was “low difference for the dilutions of 1/100 and 1/1000”; the “ELISA signal, myotoxin II coated wells versus uncoated control” value was “greatest difference between toxin coated wells and control”.
SWEPYANPTRYKFHDW [Clone 1.8]: in data set [1], the “ELISA signal at different dilutions” value is “low difference for the dilutions of 1/100 and 1/1000”; the “ELISA signal, myotoxin II coated wells versus uncoated control” value was “greatest difference between toxin coated wells and control”.
Take QSVTMGPGLITHSPIHTQSK [Clone 1.2]: in data set [1], the “ELISA signal at different dilutions” value is “low difference for the dilutions of 1/100 and 1/1000”; the “ELISA signal, myotoxin II coated wells versus uncoated control” value was “greatest difference between toxin coated wells and control”.
In the case of `CC(C)[C@H](NC(=O)[C@H](Cc1c[nH]c2ccccc12)NC(=O)[C@H](Cc1c[nH]cn1)NC(=O)[C@@H](N)CC(=O)O)C(=O)N[C@@H](Cc1c[nH]c2ccccc12)C(=O)NCC(=O)N[C@@H](Cc1c[nH]c2ccccc12)C(=O)N[C@@H](CC(N)=O)C(=O)N[C@@H](Cc1ccc(O)cc1)C(=O)N[C@@H](CCC(N)=O)C(=O)N[C@@H](Cc1ccc(O)cc1)C(=O)N[C@@H](CCC(N)=O)C(=O)N1CCC[C@H]1C(=O)N[C@@H](CCC(N)=O)C(=O)N[C@@H](CCC(=O)O)C(=O)N[C@@H](Cc1c[nH]c2ccccc12)C(=O)N[C@@H](Cc1c[nH]cn1)C(=O)N[C@H](C(=O)N[C@@H](CCC(=O)O)C(=O)N[C@@H](CO)C(=O)O)[C@@H](C)O` [Clone 1.9] (H-DHWVWGWNYQYQPQEWHTES-OH), the “Cytotoxicity of Myotoxin II in presence of peptide (LDH release)” value in data set [3] was found to be 4%.
